# Assay results: US20050042213A1, “Methods and pharmaceutical compositions for modulating heparanase activation and uses thereof” (InSight Biopharmaceuticals Ltd., priority 2003, published 2005)
# System: MPanc-96 pancreatic tumor cells
# Assay: MPanc-96 pancreatic tumor xenograft in SCID mice
# Type: in vivo
# Description: Mpanc-96 tumor cell injection—MPanc-96 pancreatic tumor cells were obtained from the ATCC(CCL-2380). On day 1, cells (5×10^6 cells/0.2 ml RPMI+FBS) were subcutaneously injected to the right flank, midway between the axillary and inguinal regions, of SCID mice. Prior to injection the cells were mixed by gentle vortexing. The cells were injected using a 25G needle, and the appearance of a bulge was observed. Following injection to animals, cells were counted in the leftover tubes with trypan blue, and re-cultured to test proliferation.
# Compound 5 injections—Tumors were measured prior to inhibitor injection. […] The animals were injected intraperitoneally, daily, twice a day, starting 6 days after tumor cells injection, with 50 μl plain DMSO or 50 μl of Compound 5 in DMSO (8 mg/ml in DMSO).
# Tumor growth—Tumor size was measured in two perpendicular dimensions, twice a week using digital calipers. Volumes were estimated using the formula (α^2×β)/2, where α is the shorter of the two dimensions, and β is the longer of the two dimensions.
# Study termination—At the end of the study, 21 days following tumor cell injection, animals were euthanized by IP veterinary penthal injection. In case of severe weight loss (>20%), a tumor>1000 mm^3 or depression, an animal was euthanized prior to the study's termination day. Upon animal death prior to the end of the study, body weight and tumor size were measured.
compound,measurement,setting,value
O=C(O)CCCN1C(=O)C(=Cc2ccc(-c3ccc([N+](=O)[O-])cc3)o2)SC1=S [Compound 5],reduction of tumor volume,"10 mg/kg/day, compared with 40 mg/kg/day",twice as much reduction
same,reduction of tumor volume,"40 mg/kg/day, intraperitoneally, SCID mice",35%
same,tumor growth in SCID mice,"mouse, in vivo",inhibited tumor growth in SCID mice efficiently
